We go through 6 molecules from ChEMBL document CHEMBL1146417, “New anti-HIV-1, antimalarial, and antifungal compounds from Terminalia bellerica” (J Nat Prod, 1997).

For experiment [1], the system named is Candida albicans. The experiment is described as follows: Antifungal activity against Candida albicans IMI 349010 on TLC plate by agar overlay method. The format is functional.
The subject of experiment [2] is Human immunodeficiency virus 1. The experiment is described as follows: Antiviral activity against HIV1 in MT4 cells assessed as reduction of HIV antigen production. The settings on record: Human immunodeficiency virus 1, MT4. The format is functional, organism-based.
Experiment [3] deals with Plasmodium falciparum. The experiment is described as follows: Antimalarial activity against chloroquine-sensitive Plasmodium falciparum 3D7 by [3H]hypoxanthine incorporation assay. The format is functional, organism-based.
Experiment [4] relates to Penicillium expansum. The experiment is described as follows: Antifungal activity against Penicillium expansum IMI 960902 on TLC plate by bioautographic method. In kind it is functional.

A value given as a limit tells only on which side of the number the result lay.

For the molecule `C=C(Cc1ccc(O)cc1)C(=C)Cc1ccc(O)cc1` [ANOLIGNAN B], the Activity in experiment [1] was above 200 µg; in experiment [4], 5 µg. Besides, the EC50 (commonly the concentration needed to bring the measured effect to its halfway point) in experiment [2] worked out at 7 µM. For the same molecule, the IC50 – broadly, the concentration that inhibits the measured activity by half – in experiment [3] amounted to 20.5 µM.
Consider NYSTATIN, for which, in experiment [4], the Activity turned out to be 0.5 µg.
On to `C=C(Cc1ccc(O)cc1)C(O)(CO)Cc1ccc(OC)cc1O` (stereo not drawn) [THANNILIGNAN], for which the Activity in experiment [1] is 80 µg; in experiment [4] it was 2 µg. In experiment [2], the EC50 was 7 µM. Further, the IC50 in experiment [3] was above 50 µM.
As for `C[C@@H]1[C@H](O)[C@@H](C)/C=C/C=C/C=C/C=C/C=C/C=C/C=C/[C@H](O[C@@H]2O[C@H](C)[C@@H](O)[C@H](N)[C@@H]2O)C[C@@H]2O[C@](O)(C[C@@H](O)C[C@@H](O)[C@H](O)CC[C@@H](O)C[C@@H](O)CC(=O)O[C@H]1C)C[C@H](O)[C@H]2C(=O)O` [AMPHOTERICIN B], the Activity in experiment [1] is 1 µg.
On to `Oc1ccc2c(c1)O[C@H](c1ccc3c(c1)OCO3)CC2`, for which the values for the Activity in experiment [1] and in experiment [4] were 6 µg and 3 µg, respectively. For the same molecule, in experiment [2], the EC50 was determined as 7 µM. Also, the IC50 in experiment [3] was above 50 µM.
On to `C=C(Cc1ccc(O)cc1)C(=C)Cc1ccc(OC)cc1O` [TERMILIGNAN], for which the Activity is 10 µg in experiment [1] and 1 µg in experiment [4]. Also, the half-maximal effective concentration (EC50) in experiment [2] came out at 7 µM. For the same molecule, it took 9.6 µM to reach half-maximal inhibition in experiment [3] (IC50).
